{
  "source": "patent US4963553A",
  "about": "“4-[(substituted) alkylcarbonyl]-4,5-dihydro- and -4,5,6,7-tetrahydro-7-[(substituted)phenyl]pyrazolo[1,5-a]pyrimidines” (American Cyanamid Co., priority 1988, dated 1990)",
  "note": "Counter-ions that a name gives are not always drawn.",
  "data": [
    {"tested_on": "mice (hypoxic environment)", "assay": "Hypoxic survival test", "type": "in vivo, mouse (Royal Hart)", "settings": "100 mg/kg, intraperitoneal, 10% oxygen, 5 minutes", "method": "(§1) The hypoxic survival test is a useful in vivo test for measuring the effectiveness of central nervous system-acting drugs in enhancing survival in an hypoxic environment relative to the known parasympathomimetic agent physostigmine.\n(§2) Drugs are tested by intraperitoneal injection of groups of mice 30 minutes prior to placing them in an hypoxic environment and measuring survival. The rationale of this test is that drugs which enhance survival under hypoxic conditions without concomitant depression or sedative side effects, do so by enhancing brain metabolism, i.e., by improving energy supply relative to demand and so preserving normal brain function under conditions of reduced energy metabolism. Considering the dependence of the brain on a constant supply of energy, drugs which have this property may have many far-reaching therapeutic indications, including aiding recovery from stroke and closed head injury and reducing the deleterious effects of age-related central nervous system deficits.\n(§3) In the hypoxic survival test, groups of 20 Royal Hart mice (6 weeks of age) were injected intraperitoneally with a test compound in saline at various doses ranging from 1 to 200 mg/kg, 30 minutes prior to placing them in an hypoxic mixture (10% oxygen, 90% […]) and measuring survival after 5 minutes.\n(§4) A control group of 20 mice was injected intraperitoneally with saline (0.01 ml/g of body weight) and processed as described above.\n(§5) Another group of 20 mice was injected intraperitoneally with 0.125 mg/kg of physostigmine in saline and processed as described above.", "units": {"% Survivors": "%"}, "values": [
      {"smiles": "N#Cc1cnn2c1N(C(=O)CN1CCN(CCc3ccccc3)CC1)CC=C2c1cccc(C(F)(F)F)c1", "note": "[4,5-Dihydro-4-[[4-(2-phenylethyl)-1-piperazinyl]acetyl]-7-[3-trifluoromethyl)phenyl]pyrazolo[1,5-a]pyrimidine-3-carbonitrile]", "% Survivors": 90},
      {"smiles": "CC1C=C(c2cccc(C(F)(F)F)c2)n2ncc(C#N)c2N1C(=O)CN1CCN(Cc2ccccc2)CC1", "note": "(stereo not drawn) [Example 72, 4,5-Dihydro-5-methyl-4-[[4-(phenylmethyl)-1-piperazinyl]acetyl]-7-[3-(trifluoromethyl)phenyl]pyrazolo[1,5-a]pyrimidine-3-carbonitrile]", "% Survivors": 25}
    ]},
    {"tested_on": "mice (hypoxic environment)", "assay": "Hypoxic survival test", "type": "in vivo, mouse (Royal Hart)", "settings": "Mus musculus, ip, 5 min, 10 mg/kg, intraperitoneal, 10% oxygen, 5 minutes; read-out: % Survivors", "method": "as §1, §2, §3, §4, §5", "units": {"responders at 10 mg/kg": "%"}, "values": [
      {"smiles": "N#Cc1cnn2c1N(C(=O)CN1CCN(Cc3c(Cl)cccc3Cl)CC1)CCC2c1cccc(C(F)(F)F)c1", "note": "(stereo not drawn) [Example 54, 4-[[4-[(2,6-Dichlorophenyl)methyl]-1-piperazinyl]acetyl]-4,5,6,7-tetrahydro-7-[3-(trifluoromethyl)phenyl]pyrazolo[1,5-a]pyrimidine-3-carbonitrile]", "responders at 10 mg/kg": 25},
      {"smiles": "N#Cc1cnn2c1N(C(=O)CN1CCN(Cc3ccccc3)CC1)CC=C2c1ccc(Cl)cc1", "note": "[Example 58, 7-(4-Chlorophenyl)-4,5-dihydro-4-[[4-(phenylmethyl)-1-piperazinyl]acetyl]pyrazolo[1,5-a]pyrimidine-3-carbonitrile]", "responders at 10 mg/kg": 50},
      {"smiles": "N#Cc1cnn2c1N(C(=O)CN1CCN(Cc3ccccc3C(F)(F)F)CC1)CC=C2c1ccc(Cl)cc1", "note": "[Example 59, 7-(4-Chlorophenyl)-4,5-dihydro-4-[[4-[[2-(trifluoromethyl)phenyl]methyl]-1-piperazinyl]acetyl]pyrazolo[1,5-a]pyrimidine-3-carbonitrile]", "responders at 10 mg/kg": 55},
      {"smiles": "NC(=O)c1cnn2c1N(C(=O)CN1CCN(Cc3ccccc3)CC1)CC=C2c1cccc(C(F)(F)F)c1", "note": "[Example 75, 4,5-Dihydro-4-[[4-(phenylmethyl)-1-piperazinyl]acetyl]-7-[3-(trifluoromethyl)phenyl]pyrazolo[1,5-a]pyrimidine-3-carboxamide]", "responders at 10 mg/kg": 15},
      {"smiles": "N#Cc1cnn2c1N(C(=O)CN1CCN(C3CCC3)CC1)CC=C2c1cccc(C(F)(F)F)c1", "note": "[Example 91, 4-[(4-Cyclobutyl-1-piperazinyl)acetyl]-4,5-dihydro-7-[3-(trifluoromethyl)phenyl]pyrazolo[1,5-a]pyrimidine-3-carbonitrile, dihydrochloride]", "responders at 10 mg/kg": 55}
    ]},
    {"tested_on": "mice (hypoxic environment)", "assay": "Hypoxic survival test", "type": "in vivo, mouse (Royal Hart)", "settings": "Mus musculus, ip, 5 min, 100 mg/kg, intraperitoneal, 10% oxygen, 5 minutes; read-out: % Survivors", "method": "as §1, §2, §3, §4, §5", "units": {"responders at 100 mg/kg": "%"}, "values": [
      {"smiles": "N#Cc1cnn2c1N(C(=O)CN1CCN(c3ccccc3)CC1)CC=C2c1cc(Cl)ccc1Cl", "note": "[7-(2,5-Dichlorophenyl)-4,5-dihydro-4-[(4-phenyl-1-piperazinyl)acetyl]pyrazolo[1,5-a]pyrimidine-3-carbonitrile]", "responders at 100 mg/kg": 70},
      {"smiles": "CC1=C(c2cccc(Cl)c2)n2ncc(C#N)c2N(C(=O)CN2CCN(Cc3cccc(C(F)(F)F)c3)CC2)C1", "note": "[7-(3-Chlorophenyl)-4,5-dihydro-6-methyl-4-[[4-[[3-(trifluoromethyl)phenyl]methyl]-1-piperazinyl]acetyl]pyrazolo[1,5-a]pyrimidine-3-carbonitrile, sesquihydrochloride]", "responders at 100 mg/kg": 35},
      {"smiles": "N#Cc1cnn2c1N(C(=O)CN1CCN(Cc3cccc(Cl)c3)CC1)CCC2c1cccc(C(F)(F)F)c1", "note": "(stereo not drawn) [Example 53, 4-[[4-[(3-Chlorophenyl)methyl]-1-piperazinyl]acetyl]-4,5,6,7-tetrahydro-7-[3-(trifluoromethyl)phenyl]pyrazolo[1,5-a]pyrimidine-3-carbonitrile]", "responders at 100 mg/kg": 15},
      {"smiles": "N#Cc1cnn2c1N(C(=O)CN1CCN(Cc3ccccc3)CC1)CC=C2c1ccc(Cl)cc1", "note": "[Example 58, 7-(4-Chlorophenyl)-4,5-dihydro-4-[[4-(phenylmethyl)-1-piperazinyl]acetyl]pyrazolo[1,5-a]pyrimidine-3-carbonitrile]", "responders at 100 mg/kg": 82.5},
      {"smiles": "N#Cc1cnn2c1N(C(=O)CN1CCN(Cc3ccccc3C(F)(F)F)CC1)CC=C2c1ccc(Cl)cc1", "note": "[Example 59, 7-(4-Chlorophenyl)-4,5-dihydro-4-[[4-[[2-(trifluoromethyl)phenyl]methyl]-1-piperazinyl]acetyl]pyrazolo[1,5-a]pyrimidine-3-carbonitrile]", "responders at 100 mg/kg": 90},
      {"smiles": "N#Cc1cnn2c1N(C(=O)CN1CCN(Cc3ccccc3)CC1)CC=C2c1cc(Cl)ccc1Cl", "note": "[Example 62, 7-(2,5-Dichlorophenyl)-4,5-dihydro-4-[[4-(phenylmethyl)-1-piperazinyl]acetyl]pyrazolo[1,5-a]pyrimidine-3-carbonitrile]", "responders at 100 mg/kg": 50},
      {"smiles": "Cc1ccc(C)c(N2CCN(CC(=O)N3CC=C(c4cc(Cl)ccc4Cl)n4ncc(C#N)c43)CC2)c1", "note": "[Example 66, 7-(2,5-Dichlorophenyl)-4-[[4-(2,5-dimethylphenyl)-1-piperazinyl]acetyl]-4,5-dihydropyrazolo[1,5-a]pyrimidine-3-carbonitrile]", "responders at 100 mg/kg": 45},
      {"smiles": "N#Cc1cnn2c1N(C(=O)CN1CCN(C(=O)c3ccccc3)CC1)CC=C2c1cccc(C(F)(F)F)c1", "note": "[Example 68, 4-[[4-Benzoyl-1-piperazinyl)acetyl]-4,5-dihydro-7-[3-(trifluoromethyl)phenyl]pyrazolo[1,5-a]pyrimidine-3-carbonitrile]", "responders at 100 mg/kg": 95},
      {"smiles": "O=C(CN1CCN(Cc2ccccc2)CC1)N1CC=C(c2cccc(C(F)(F)F)c2)n2ncc(Br)c21", "note": "[Example 76, 3-Bromo-4,5-dihydro-4-[[4-(phenylmethyl)-1-piperazinyl]acetyl]-7-[3-(trifluoromethyl)phenyl]pyrazolo[1,5-a]pyrimidine]", "responders at 100 mg/kg": 35},
      {"smiles": "N#Cc1cnn2c1N(C(=O)CN1CCN(C(c3ccc(F)cc3)c3ccc(F)cc3)CC1)CC=C2c1cccc(C(F)(F)F)c1", "note": "[Example 88, 4-[[4-[Bis(4-Fluorophenyl)methyl]-1-piperazinyl]acetyl]-4,5-dihydro-7-[3-(trifluoromethyl)phenyl]pyrazolo[1,5-a]pyrimidine-3-carbonitrile, dihydrochloride]", "responders at 100 mg/kg": 55},
      {"smiles": "CC1C=C(c2cccc(C(F)(F)F)c2)n2ncc(C#N)c2N1C(=O)CN1CCN(Cc2ccccc2)CC1", "note": "(stereo not drawn) [Example 95, 4,5-Dihydro-5-methyl-4-[[4-(phenylmethyl)-1-piperazinyl]acetyl]-7-[3-(trifluoromethyl)phenyl]pyrazolo[1,5-a]pyrimidine-3-carbonitrile, dihydrochloride]", "responders at 100 mg/kg": 43},
      {"smiles": "N#Cc1cnn2c1N(C(=O)CN1CCN(C(=O)Nc3ccc(Cl)c(C(F)(F)F)c3)CC1)CC=C2c1cccc(C(F)(F)F)c1", "note": "[Example 106, N-[4-Chloro-3-(trifluoromethyl)phenyl]-4-[2-[3-cyano-7-[3-(trifluoromethyl)phenyl)pyrazolo[1.5-a]pyrimidin-4(5H)-yl]-2-oxoethyl]-1-piperazinecarboxamide]", "responders at 100 mg/kg": 15},
      {"smiles": "N#Cc1cnn2c1N(C(=O)CN1CCN(C(=O)Nc3ccc(F)cc3F)CC1)CC=C2c1cccc(C(F)(F)F)c1", "note": "[Example 107]", "responders at 100 mg/kg": 20},
      {"smiles": "CC1=C(c2cccc(C(F)(F)F)c2)n2ncc(C#N)c2N(C(=O)CN2CCN(Cc3ccccc3)CC2)C1", "note": "[Example 111, 4,5-Dihydro-6-methyl-4-[[4-(phenylmethyl)-1-piperazinyl]acetyl]-7-[3-(trifluoromethyl)phenyl]pyrazolo[1.5-a]pyrimidine-3-carbonitrile. dihydrochloride]", "responders at 100 mg/kg": 73},
      {"smiles": "CC1=C(c2cccc(Cl)c2)n2ncc(C#N)c2N(C(=O)CN2CCN(Cc3ccccc3)CC2)C1", "note": "[Example 113, 7-(3-Chlorophenyl)-4.5-dihydro-6-methyl-4-[[4-(phenylmethyl)piperazinyl]acetyl]pyrazolo[1,5-a]pyrimidine-3-carbonitrile, dihydrochloride]", "responders at 100 mg/kg": 30},
      {"smiles": "CC1=C(c2ccc(Cl)cc2)n2ncc(C#N)c2N(C(=O)CN2CCN(Cc3ccccc3)CC2)C1", "note": "[Example 114, 7-(4-Chlorophenyl)-4.5-dihydro-6-methyl-4[[4-(phenylmethyl)piperazinyllacetyllpyrazolo[1,5-a]pyrimidine-3-carbonitrile, dihydrochloride]", "responders at 100 mg/kg": 25}
    ]},
    {"tested_on": "mice (hypoxic environment)", "assay": "Hypoxic survival test", "type": "in vivo, mouse (Royal Hart)", "settings": "Mus musculus, ip, 5 min, 200 mg/kg, intraperitoneal, 10% oxygen, 5 minutes; read-out: % Survivors", "method": "as §1, §2, §3, §4, §5", "units": {"responders at 200 mg/kg": "%"}, "values": [
      {"smiles": "Cc1ccc(C)c(N2CCN(CC(=O)N3CC=C(c4cc(Cl)ccc4Cl)n4ncc(C#N)c43)CC2)c1", "note": "[Example 66, 7-(2,5-Dichlorophenyl)-4-[[4-(2,5-dimethylphenyl)-1-piperazinyl]acetyl]-4,5-dihydropyrazolo[1,5-a]pyrimidine-3-carbonitrile]", "responders at 200 mg/kg": 80}
    ]}
  ]
}
